Measured values from US7713994B2 (Wyeth LLC, priority 2005, dated 2010).
pIC50: −log10 of the molar value.

Key:
[1] = molecular target: T1, cyclin D1/cdk 4 enzyme (Homo sapiens, UniProt P11802); assay: CDK4 ELISA kinase assay (phospho-Rb ser 795 detection); type: biochemical; conditions: In Vitro Enzyme Assay, cyclin D1/cdk 4, read-out: CDK4 IC50
T1 construct: made in house; host or cells: Sf9 insect cells, recombinant baculovirus
How it was run: (§1)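 Screening was done at 10 ug/ml compound. Each partially purified cyclin/CDK complex, produced in baculovirus-infected Sf9 cells, phosphorylated a coated GST-Rb C-terminal fragment with 200 μM ATP, and Ser795 phosphorylation was quantified by HRP-ELISA at 450 nm.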

[2] = molecular target: T2, cyclin E/CDK2 enzyme (Homo sapiens, UniProt P24941); assay: CDK2 ELISA kinase assay (phospho-Rb ser 795 detection); type: biochemical; conditions: In Vitro Enzyme Assay, cyclin E/CDK2, read-out: CDK2 IC50
T2 construct: made in house; host or cells: Sf9 insect cells, recombinant baculovirus
How it was run: as §1

[3] = molecular target: T3, cyclin B/CDK1 enzyme (Homo sapiens, UniProt P06493); assay: CDK1 ELISA kinase assay (phospho-Rb ser 795 detection); type: biochemical; conditions: In Vitro Enzyme Assay, cyclin B/CDK1, read-out: CDK1 IC50
T3 construct: purchased New England BioLabs; host or cells: Sf9 insect cells, recombinant baculovirus
How it was run: as §1

[4] = system: BT474; assay: Cytotoxicity assay (SRB), BT474; type: cell-based; conditions: Homo sapiens, BT-474, 144 h, BT474 cells, 6 days, SRB; read-out: In Vitro Cellular Activity IC50 BT474
How it was run: (§2)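 Overnight-seeded monolayers (4000–12000 cells/well by line) receive compound in 5% FBS medium at 37 °C, 7% CO2. After 3 d, or 6 d for BT474, cellular protein is fixed with cold TCA, stained with SRB and read at 540 nm against untreated wells.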

[5] = system: HCT-116; assay: Cytotoxicity assay (SRB), HCT-116; type: cell-based; conditions: Homo sapiens, HCT-116, 72 h, HCT116 cells, 3 days, SRB; read-out: In Vitro Cellular Activity IC50 HCT116
How it was run: as §2

[6] = system: LoVo; assay: Cytotoxicity assay (SRB), LoVo; type: cell-based; conditions: Homo sapiens, LoVo, 72 h, LoVo cells, 3 days, SRB; read-out: In Vitro Cellular Activity IC50 LOVO
How it was run: as §2

[7] = system: MCF-7; assay: Cytotoxicity assay (SRB), MCF-7; type: cell-based; conditions: Homo sapiens, MCF7, 72 h, MCF-7 cells, 3 days, SRB; read-out: In Vitro Cellular Activity IC50 MCF-7
How it was run: as §2

T1 sequence (P11802 whole entry, species assumed): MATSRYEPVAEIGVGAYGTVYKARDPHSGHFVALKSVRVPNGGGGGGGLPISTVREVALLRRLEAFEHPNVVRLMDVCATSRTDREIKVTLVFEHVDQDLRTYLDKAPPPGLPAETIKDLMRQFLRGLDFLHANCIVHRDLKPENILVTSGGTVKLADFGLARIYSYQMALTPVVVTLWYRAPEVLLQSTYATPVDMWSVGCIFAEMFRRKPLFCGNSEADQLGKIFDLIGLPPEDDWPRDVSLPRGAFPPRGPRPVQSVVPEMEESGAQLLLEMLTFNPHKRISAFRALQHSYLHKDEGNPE
T1 sequence (P24385 whole entry partner, species assumed): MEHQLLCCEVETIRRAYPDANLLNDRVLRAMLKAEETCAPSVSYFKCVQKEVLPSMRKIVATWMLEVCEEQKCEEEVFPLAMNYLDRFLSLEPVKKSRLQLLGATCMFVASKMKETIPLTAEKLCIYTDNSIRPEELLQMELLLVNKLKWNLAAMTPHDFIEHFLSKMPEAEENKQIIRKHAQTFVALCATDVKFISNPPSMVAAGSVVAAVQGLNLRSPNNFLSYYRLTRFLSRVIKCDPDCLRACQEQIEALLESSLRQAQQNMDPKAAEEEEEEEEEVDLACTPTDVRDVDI
T3 sequence (P06493 whole entry): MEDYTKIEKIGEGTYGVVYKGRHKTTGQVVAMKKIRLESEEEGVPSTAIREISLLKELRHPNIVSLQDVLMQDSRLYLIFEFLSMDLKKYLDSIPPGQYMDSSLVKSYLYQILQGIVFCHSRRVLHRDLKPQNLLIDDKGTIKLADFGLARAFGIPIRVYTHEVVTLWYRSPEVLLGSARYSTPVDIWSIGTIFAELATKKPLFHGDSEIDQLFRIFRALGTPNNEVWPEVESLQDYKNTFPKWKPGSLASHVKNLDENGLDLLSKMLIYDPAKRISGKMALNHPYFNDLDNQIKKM
T3 sequence (P14635 whole entry partner): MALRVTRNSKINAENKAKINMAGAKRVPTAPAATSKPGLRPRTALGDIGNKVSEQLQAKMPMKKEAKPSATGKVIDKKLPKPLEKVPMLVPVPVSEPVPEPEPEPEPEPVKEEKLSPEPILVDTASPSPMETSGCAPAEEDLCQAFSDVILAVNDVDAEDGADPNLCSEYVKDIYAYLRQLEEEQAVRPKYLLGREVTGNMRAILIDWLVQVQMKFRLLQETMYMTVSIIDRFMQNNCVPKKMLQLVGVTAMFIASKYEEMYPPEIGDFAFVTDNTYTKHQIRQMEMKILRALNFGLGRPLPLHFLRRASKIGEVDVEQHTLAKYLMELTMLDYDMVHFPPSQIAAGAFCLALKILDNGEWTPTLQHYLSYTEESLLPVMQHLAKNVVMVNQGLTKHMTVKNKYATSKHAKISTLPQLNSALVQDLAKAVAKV

Row | Structure (SMILES) | pIC50 [1] | pIC50 [2] | pIC50 [3] | pIC50 [4] | pIC50 [5] | pIC50 [6] | pIC50 [7]
1 | O=C1NC(=O)c2ccc(-c3ccoc3)cc2/C1=C/Nc1ccc(CN2CCC[C@H]2CO)cc1 [Example 463, 6-Furan-3-yl-4-{[4-(2-hydroxymethyl-pyrrolidin-1-ylmethyl)-phenylamino]-methylene}-4H-isoquinoline-1,3-dione] | 7.22 | < 4.30 | < 4.30 | 5.77 | 5.64 | 5.70 | 6.05
2 | O=C1NC(=O)c2ccc(I)cc2/C1=C/Nc1ccc(C2CCCN2CCO)cc1 (stereo not drawn) [Example 464, 4-({4-[1-(2-Hydroxy-ethyl)-pyrrolidin-2-yl]-phenylamino}-methylene)-6-iodo-4H-isoquinoline-1,3-dione] | 6.85 | < 4.30 | < 4.30 | 5.18 | 5.49 | 5.34 | 5.62
3 | CCN1CCCC1c1ccc(N/C=C2\C(=O)NC(=O)c3ccc(I)cc32)cc1 (stereo not drawn) [Example 465, 4-{[4-(1-Ethyl-pyrrolidin-2-yl)-phenylamino]-methylene}-6-iodo-4H-isoquinoline-1,3-dione] | 6.74 | 4.66 | < 4.30 | 5.42 | 5.54 | 5.30 | 5.89
4 | O=C1NC(=O)c2ccc(-c3ccco3)cc2/C1=C/Nc1ccc(CN2CCC[C@H]2CO)cc1 [Example 466, 6-Furan-2-yl-4-{[4-(2-hydroxymethyl-pyrrolidin-1-ylmethyl)-phenylamino]-methylene}-4H-isoquinoline-1,3-dione] | 6.89 | < 4.30 | < 4.30 | 5.85 | 5.68 | 5.68 | 5.92
5 | O=C1NC(=O)c2ccc(-c3nccs3)cc2/C1=C/Nc1ccc(CN2CCC[C@H]2CO)cc1 [Example 472, 4-{[4-(2-Hydroxymethyl-pyrrolidin-1-ylmethyl)-phenylamino]-methylene}-6-thiazol-2-yl-4H-isoquinoline-1,3-dione] | 6.22 | < 4.30 | < 4.30 | 5.04 | 5.30 | 5.05 | 4.85
6 | CCN1CCCC1c1ccc(N/C=C2\C(=O)NC(=O)c3ccc(-c4ccoc4)cc32)cc1 (stereo not drawn) [Example 473, 4-{[4-(1-Ethyl-pyrrolidin-2-yl)-phenylamino]-methylene}-6-furan-3-yl-4H-isoquinoline-1,3-dione] | 7.30 | < 4.30 | < 4.30 | 5.82 | 5.62 | 5.64 | 5.70
7 | CN1CCN(c2ncc(N/C=C3\C(=O)NC(=O)c4ccc(I)cc43)cn2)CC1 [Example 475, (4Z)-6-Iodo-4-({[2-(4-methylpiperazin-1-yl)pyrimidin-5-yl]amino}methylene)isoquinoline-1,3(2H,4H)-dione] | 6.15 | < 4.30 | < 4.30 | 5.09 | 5.49 | 5.11 | 5.66
8 | O=C1NC(=O)c2ccc(I)cc2/C1=C/Nc1ccc(CN2CCS(=O)(=O)CC2)cc1 [Example 483, 4-{[4-(1,1-Dioxo-1-thiomorpholin-4-ylmethyl)-phenylamino]-methylene}-6-iodo-4H-isoquinoline-1,3-dione] | 4.79 | < 4.30 | < 4.30 | < 4.30 | 4.88 | < 4.30 | < 4.30
9 | CN1CCN(c2ncc(N/C=C3\C(=O)NC(=O)c4ccc(-c5ccoc5)cc43)cn2)CC1 [Example 484, (4Z)-6-(3-Furyl)-4-({[2-(4-methylpiperazin-1-yl)pyrimidin-5-yl]amino}methylene)isoquinoline-1,3(2H,4H)-dione] | 6.60 | < 4.30 | 4.51 | 5.60 | 5.95 | 5.91 | 5.49
